Here are results for 25 molecules from US10781181B2, “N-((het) arylmethyl)-heteroaryl-carboxamides compounds as plasma kallikrein inhibitors” (Kalvista Pharmaceuticals Limited, priority 2014, dated 2020).

What all share (format): biochemical
One test deals with Human KLK1 (Homo sapiens (Human), UniProt P06870). Kind of test: Determination of the IC50 for KLK1. The following applies: human KLK1, 25° C., substrate H-DVal-Leu-Arg-AFC. How it is done:
Determination of the IC50 for KLK1
Human KLK1 (Callbiochem) was incubated at 25° C. with the fluorogenic substrate H-DVal-Leu-Arg-AFC and various concentrations of the test compound. Residual enzyme activity (initial rate of reaction) was determined by measuring the change in […] at 410 nm and the IC50 value for the test compound was determined.

Another test addresses Human plasma kallikrein (Homo sapiens (Human), UniProt P03952). The test is described as follows: Determination of the IC50 for plasma kallikrein. Conditions: read-out: IC50 (human PKal). How it is done:
Determination of the IC50 for Plasma Kallikrein
Human plasma kallikrein (Protogen) was incubated at 25° C. with the fluorogenic substrate H-DPro-Phe-Arg-AFC and various concentrations of the test compound. Residual enzyme activity (initial rate of reaction) was determined by measuring the change in […] at 410 nm and the IC50 value for the test compound was determined.

The target in another test is Human FXIa (Homo sapiens (Human), UniProt P03951). The test is described as follows: Determination of the % inhibition for FXIa. The following applies: 40 μM of the test compound, human FXIa, 25° C.; read-out: % Inhibition @ 40 μM (human FXIa). As to the method:
Determination of the % Inhibition for FXIa
Human FXIa (Enzyme Research Laboratories) was incubated at 25° C. with the fluorogenic substrate Z-Gly-Pro-Arg-AFC and 40 μM of the test compound. Residual enzyme activity (initial rate of reaction) was determined by measuring the change in […].

Chain of Human FXIa (P03951 388-625 limits assumed): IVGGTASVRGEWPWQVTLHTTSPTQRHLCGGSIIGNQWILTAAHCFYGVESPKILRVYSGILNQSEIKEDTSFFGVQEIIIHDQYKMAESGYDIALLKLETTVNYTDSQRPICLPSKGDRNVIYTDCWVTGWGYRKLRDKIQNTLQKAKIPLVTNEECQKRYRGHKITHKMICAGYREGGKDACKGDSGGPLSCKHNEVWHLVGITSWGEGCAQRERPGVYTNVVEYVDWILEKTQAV
Chain of Human FXIa (P03951 19-387 partner limits assumed): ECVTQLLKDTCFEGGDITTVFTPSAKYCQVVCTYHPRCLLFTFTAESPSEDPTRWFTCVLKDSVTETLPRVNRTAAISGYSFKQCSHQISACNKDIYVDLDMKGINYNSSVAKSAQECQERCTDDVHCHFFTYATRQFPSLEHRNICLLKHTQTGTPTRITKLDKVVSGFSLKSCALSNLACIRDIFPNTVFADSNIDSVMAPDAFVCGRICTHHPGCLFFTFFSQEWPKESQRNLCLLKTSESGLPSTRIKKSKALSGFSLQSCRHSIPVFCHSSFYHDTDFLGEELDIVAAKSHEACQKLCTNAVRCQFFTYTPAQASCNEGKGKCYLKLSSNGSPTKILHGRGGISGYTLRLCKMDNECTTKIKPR
Chain of Human plasma kallikrein (P03952 391-638): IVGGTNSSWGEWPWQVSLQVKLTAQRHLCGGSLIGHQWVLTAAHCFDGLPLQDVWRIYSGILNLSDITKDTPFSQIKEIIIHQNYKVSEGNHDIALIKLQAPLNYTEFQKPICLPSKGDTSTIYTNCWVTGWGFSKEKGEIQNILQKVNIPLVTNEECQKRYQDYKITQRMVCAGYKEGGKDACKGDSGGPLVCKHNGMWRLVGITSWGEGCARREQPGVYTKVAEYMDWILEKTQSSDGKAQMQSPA
Chain of Human plasma kallikrein (P03952 20-390 partner): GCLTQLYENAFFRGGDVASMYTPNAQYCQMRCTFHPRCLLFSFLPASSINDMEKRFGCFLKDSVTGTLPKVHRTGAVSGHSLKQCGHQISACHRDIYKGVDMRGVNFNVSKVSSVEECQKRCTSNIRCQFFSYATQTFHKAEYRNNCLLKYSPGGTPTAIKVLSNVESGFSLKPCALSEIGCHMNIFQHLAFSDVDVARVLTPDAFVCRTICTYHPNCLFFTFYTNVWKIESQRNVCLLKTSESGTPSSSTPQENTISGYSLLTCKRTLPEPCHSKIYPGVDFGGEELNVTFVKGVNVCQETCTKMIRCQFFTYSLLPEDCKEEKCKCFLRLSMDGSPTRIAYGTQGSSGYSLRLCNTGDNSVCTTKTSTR
Chain of Human KLK1 (P06870 25-262): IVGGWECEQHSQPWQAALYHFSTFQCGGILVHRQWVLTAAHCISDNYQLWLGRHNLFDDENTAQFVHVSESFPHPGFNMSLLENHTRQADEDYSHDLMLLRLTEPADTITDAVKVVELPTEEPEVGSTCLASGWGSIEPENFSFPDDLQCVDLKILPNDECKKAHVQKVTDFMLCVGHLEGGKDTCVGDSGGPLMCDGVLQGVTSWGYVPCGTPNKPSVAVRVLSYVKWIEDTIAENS

For `COCc1nn(Cc2ccc(Cn3cc(C)cn3)cc2)cc1C(=O)NCCOc1cccc(Cl)c1` [Example 27, N-[2-(3-chlorophenoxy)ethyl]-3-(methoxymethyl)-1-({4-[(4-methylpyrazol-1-yl)methyl]phenyl}methyl)pyrazole-4-carboxamide], the results for the IC50 against Human KLK1 and at Human plasma kallikrein were over 10 µM and 0.231 µM, respectively. Besides, the inhibition at 40 µM at Human FXIa turned out to be 0%.

Regarding `CN(C)c1nn(Cc2ccc(Cn3ccccc3=O)cc2)cc1C(=O)NCCOc1cccc(Cl)c1` [Example 35, N-[2-(3-chlorophenoxy)ethyl]-3-(dimethylamino)-1-({4-[(2-oxopyridin-1-yl)methyl]phenyl}methyl)pyrazole-4-carboxamide], the IC50 on Human KLK1 was over 40 µM; at Human plasma kallikrein, 0.122 µM. The inhibition at 40 µM on Human FXIa is 1%.

As for `Nc1nn(Cc2nc(Cc3ccccc3)no2)cc1C(=O)NCCOc1cccc(Cl)c1` [Example 90, 3-amino-1-[(3-benzyl-1,2,4-oxadiazol-5-yl)methyl]-N-[2-(3-chlorophenoxy)ethyl]pyrazole-4-carboxamide], the results for the IC50 against Human KLK1 and at Human plasma kallikrein were over 40 µM and over 10 µM, respectively. Moreover, at Human FXIa, the inhibition at 40 µM was determined as 0%.

As to `Nc1nn(Cc2ccc(Cn3ccccc3=O)cc2)cc1C(=O)NCCOc1cncc(Cl)c1` [Example 18, 3-amino-N-{2-[(5-chloropyridin-3-yl)oxy]ethyl}-1-({4-[(2-oxopyridin-1-yl)methyl]phenyl}methyl)pyrazole-4-carboxamide], the IC50 against Human KLK1 is over 40 µM; on Human plasma kallikrein it was 2.01 µM. In addition, at Human FXIa, the inhibition at 40 µM was 0%.

`Nc1nn(Cc2ccc(Oc3ccccc3)cc2)cc1C(=O)NCCOc1cccc(Cl)c1` [Example 71, 3-amino-N-[2-(3-chlorophenoxy)ethyl]-1-[(4-phenoxyphenyl)methyl]pyrazole-4-carboxamide]: the IC50 against Human KLK1 was over 40 µM; on Human plasma kallikrein, 2.07 µM. The inhibition at 40 µM at Human FXIa was determined as 0%.

`Nc1nn(Cc2ccnc(N3CCCC3)c2)cc1C(=O)NCCOc1cccc(Cl)c1` [Example 50, 3-amino-N-[2-(3-chlorophenoxy)ethyl]-1-{[2-(pyrrolidin-1-yl)pyridin-4-yl]methyl}pyrazole-4-carboxamide]: the values for the IC50 at Human KLK1 and at Human plasma kallikrein were over 40 µM and 0.326 µM, respectively. The inhibition at 40 µM at Human FXIa was determined as 59%.

As for `Nc1nn(Cc2ccc(Cn3ccccc3=O)cc2)cc1C(=O)NCC(=O)Nc1cccc(Cl)c1` [Example 2], the IC50 against Human KLK1 is over 10 µM; at Human plasma kallikrein it was 0.0602 µM. Also, the inhibition at 40 µM at Human FXIa turned out to be 0%.

Regarding `Nc1nn(Cc2ccc(-n3ccccc3=O)cc2)cc1C(=O)NCCOc1cccc(Cl)c1` [Example 52, 3-amino-N-[2-(3-chlorophenoxy)ethyl]-1-{[4-(2-oxopyridin-1-yl)phenyl]methyl}pyrazole-4-carboxamide], the IC50 was over 40 µM at Human KLK1 and 0.335 µM on Human plasma kallikrein. Moreover, the inhibition at 40 µM at Human FXIa came out at 0%.

With `CNC(=O)CN(C)c1cc(Cn2cc(C(=O)NCCOc3cccc(Cl)c3)c(N)n2)ccn1` [Example 74, 3-amino-N-[2-(3-chlorophenoxy)ethyl]-1-[(2-{methyl[(methylcarbamoyl)methyl]amino}pyridin-4-yl)methyl]pyrazole-4-carboxamide], the IC50 at Human KLK1 is over 40 µM; at Human plasma kallikrein, over 10 µM. In addition, the inhibition at 40 µM at Human FXIa was 4%.

Take `Nc1nn(Cc2ccc(Cn3ccccc3=O)cc2)cc1C(=O)NCC(=O)Nc1ccccc1Cl` [Example 3, 2-{[3-amino-1-({4-[(2-oxopyridin-1-yl)methyl]phenyl}methyl)pyrazol-4-yl]formamido}-N-(2-chlorophenyl)acetamide]: the IC50 against Human KLK1 is over 10 µM; on Human plasma kallikrein, 5.53 µM. For the same molecule, the inhibition at 40 µM on Human FXIa was determined as 0%.

In the case of `Nc1nn(Cc2ccnc(-c3cccnc3)c2)cc1C(=O)NCCOc1cccc(Cl)c1` [Example 91, 3-amino-N-[2-(3-chlorophenoxy)ethyl]-1-{[2-(pyridin-3-yl)pyridin-4-yl]methyl}pyrazole-4-carboxamide], the IC50 against Human KLK1 is over 40 µM; at Human plasma kallikrein, 3.78 µM. For the same molecule, at Human FXIa, the inhibition at 40 µM came to 0%.

As for `Nc1nn(Cc2ccc(Cn3ccccc3=O)cc2)cc1C(=O)N[C@H]1CCN(c2cccc(Cl)c2)C1` [Example 105, 3-amino-N-[(3S)-1-(3-chlorophenyl)pyrrolidin-3-yl]-1-({4-[(2-oxopyridin-1-yl)methyl]phenyl}methyl)pyrazole-4-carboxamide], the 50% inhibitory concentration (IC50) is over 40 µM on Human KLK1 and 0.0038 µM on Human plasma kallikrein. Further, the inhibition at 40 µM on Human FXIa stood at 0%.

Regarding `Nc1nn(Cc2ccc3[nH]ncc3c2)cc1C(=O)NCCOc1cccc(Cl)c1` [Example 92, 3-amino-N-[2-(3-chlorophenoxy)ethyl]-1-(1H-indazol-5-ylmethyl)pyrazole-4-carboxamide], the IC50 against Human KLK1 and at Human plasma kallikrein was over 10 µM throughout. On Human FXIa, the inhibition at 40 µM was determined as 2%.

For `CCOC(=O)c1cccc(Cn2cc(C(=O)NCCOc3cccc(Cl)c3)c(N)n2)c1` [Example 62, ethyl 3-[(3-amino-4-{[2-(3-chlorophenoxy)ethyl]carbamoyl}pyrazol-1-yl)methyl]benzoate], the values for the IC50 on Human KLK1 and on Human plasma kallikrein were over 40 µM and 7.15 µM, respectively. Moreover, at Human FXIa, the inhibition at 40 µM is 4%.

Turning to `Nc1nn(Cc2ccc(Cn3ccccc3=O)cc2)cc1C(=O)NCCCc1cccc(Cl)c1` [Example 42, 3-amino-N-[3-(3-chlorophenyl)propyl]-1-({4-[(2-oxopyridin-1-yl)methyl]phenyl}methyl)pyrazole-4-carboxamide], the results for the IC50 at Human KLK1 and on Human plasma kallikrein were over 40 µM and 0.0032 µM, respectively. For the same molecule, on Human FXIa, the inhibition at 40 µM is 0%.

Turning to `Cc1ccc2cc(Cn3cc(C(=O)NCCOc4cccc(Cl)c4)c(N)n3)ccc2n1` [Example 54, 3-amino-N-[2-(3-chlorophenoxy)ethyl]-1-[(2-methylquinolin-6-yl)methyl]pyrazole-4-carboxamide], the IC50 at Human KLK1 is over 40 µM; at Human plasma kallikrein, 0.245 µM. The inhibition at 40 µM at Human FXIa stood at 67%.

For `CNC(=O)CNc1ccc(Cn2cc(C(=O)NCCOc3cccc(Cl)c3)c(N)n2)cn1` [Example 78, 3-amino-N-[2-(3-chlorophenoxy)ethyl]-1-[(6-{[(methylcarbamoyl)methyl]amino}pyridin-3-yl)methyl]pyrazole-4-carboxamide], the figures for the IC50 against Human KLK1 and at Human plasma kallikrein were over 40 µM and 6.93 µM, respectively. Besides, the inhibition at 40 µM on Human FXIa was 4%.

As for `COC(=O)c1ccc(Cn2cc(C(=O)NCCOc3cccc(Cl)c3)c(N)n2)cc1` [Example 58, methyl 4-[(3-amino-4-{[2-(3-chlorophenoxy)ethyl]carbamoyl}pyrazol-1-yl)methyl]benzoate], the IC50 at Human KLK1 was over 40 µM; on Human plasma kallikrein it was 5.42 µM. Further, the inhibition at 40 µM at Human FXIa worked out at 1%.

In the case of `CNC(=O)CNc1cc(Cn2cc(C(=O)NCCOc3cccc(Cl)c3)c(N)n2)ccn1` [Example 68, 3-amino-N-[2-(3-chlorophenoxy)ethyl]-1-[(2-{[(methylcarbamoyl)methyl]amino}pyridin-4-yl)methyl]pyrazole-4-carboxamide], the IC50 on Human KLK1 was over 40 µM; on Human plasma kallikrein, over 10 µM. For the same molecule, the inhibition at 40 µM at Human FXIa was determined as 0%.

In the case of `Nc1nn(Cc2ccc(Cn3ccccc3=O)cc2)cc1C(=O)NCC(=O)Nc1ccc(Cl)cc1` [Example 4, 2-{[3-amino-1-({4-[(2-oxopyridin-1-yl)methyl]phenyl}methyl)pyrazol-4-yl]formamido}-N-(4-chlorophenyl)acetamide], the IC50 against Human KLK1 and on Human plasma kallikrein was over 10 µM throughout.

Consider `COc1cc(Cn2cc(C(=O)NCCOc3cccc(Cl)c3)c(N)n2)ccc1Cn1ccccc1=O` [Example 98, 3-amino-N-[2-(3-chlorophenoxy)ethyl]-1-({3-methoxy-4-[(2-oxopyridin-1-yl)methyl]phenyl}methyl)pyrazole-4-carboxamide], for which the IC50 on Human KLK1 was over 40 µM; at Human plasma kallikrein, 0.0094 µM.

As for `Cc1nn(Cc2ccc(Cn3ccccc3=O)cc2)cc1C(=O)NCCOc1cccc(Cl)c1` [Example 39, N-[2-(3-chlorophenoxy)ethyl]-3-methyl-1-({4-[(2-oxopyridin-1-yl)methyl]phenyl}methyl)pyrazole-4-carboxamide], the IC50 is over 40 µM against Human KLK1 and 0.0163 µM on Human plasma kallikrein.

Take `Cc1nc(C(=O)NCCOc2cccc(Cl)c2)cn1Cc1ccc(Cn2ccccc2=O)cc1` [Example 43, N-[2-(3-chlorophenoxy)ethyl]-2-methyl-1-({4-[(2-oxopyridin-1-yl)methyl]phenyl}methyl)imidazole-4-carboxamide]: the IC50 was over 10 µM at Human KLK1 and 0.077 µM at Human plasma kallikrein.

For `Nc1c(C(=O)NCCOc2cccc(Cl)c2)cnn1Cc1ccc2[nH]ncc2c1` [Example 44, 5-amino-N-[2-(3-chlorophenoxy)ethyl]-1-(1H-indazol-5-ylmethyl)pyrazole-4-carboxamide], the IC50 against Human KLK1 is over 40 µM; at Human plasma kallikrein, over 10 µM.

As to `Cc1nc2cc(Cn3cc(C(=O)NCCOc4cccc(Cl)c4)c(N)n3)ccc2n1C` [Example 95, 3-amino-N-[2-(3-chlorophenoxy)ethyl]-1-[(1,2-dimethyl-1,3-benzodiazol-5-yl)methyl]pyrazole-4-carboxamide], the IC50 at Human KLK1 was over 40 µM; at Human plasma kallikrein it was 1.9 µM.
